Experimental data taken from patent US20240058318A1, “DEGRADING PKCB1 TO TREAT CANCER” (Mayo Foundation for Medical Education and Research, priority 2020, published 2024).

Columns and labels:
Assay type in all cases: cell-based
[1] = test system: MDAMB436 cells; test: Crystal violet (CV) proliferation assay, MDAMB436; conditions: MDAMB436 (PKCß1 low, Rb negative), 2000 cells
Description: (§1) Cell proliferation rates were determined using crystal violet assays. […] Cells were fixed with 25% glutaraldehyde for 10 minutes with shaking, washed 5 times with distilled water, stained with a 1% crystal violet solution (solubilized in 25% methanol) for 10 minutes, washed again 5 times and allowed to dry. De-staining was performed using […] sodium citrate in 50% ethanol followed by quantification using a 96 well spectrophotometer set at an absorbance of 550 nm.

[2] = test system: MDAMB231 cells; test: Crystal violet (CV) proliferation assay, MDAMB231; conditions: MDAMB231 (PKCß1 high, Rb positive), 2000 cells
Description: as §1

[3] = test system: ER-stress induced UPR pathway; test: Western blot of UPR pathway proteins in MDA-MB-231 cells; conditions: 1 μM
Description: Triple negative breast cancer MDA-MB-231 cells were cultured in phenol-red free DMEM/F12 medium supplemented with 10% FBS and 1% AA. Cells were plated at 1×10^6 cells per 10 cm dish. The next day, the cells were treated with DMSO, 1 μM Pr-7 or 1 μM ENDX for 1, 8, 24, and 48 hours, and were then processed for RNA and RIPA protein analysis.
For western blotting, 30 μg of protein lysates were run on Criterion precast 10% Bis-Tris gel, transferred to PVDF membrane, incubated in TBST-5% milk for one hour followed by overnight incubation with phospho-IRE1α (Sigma SAB5700519, rabbit, 1:1000), IRE1α (CS3294, rabbit, 1:1000), phospho-eIF2α (CS3398, rabbit, 1:1000), eIF2α (CS5324, rabbit, 1:1000), CHOP (CS2895, mouse, 1:1000), PUMA (SC374223, mouse, 1:200), NOXA (CS14766, rabbit, 1:1000), E2F1 (SC251, mouse, 1:250), BCL2 (SC7382, 1:200), cleaved PARP (CS5625, rabbit, 1:1000), PARP (CS9542, rabbit, 1:1000), PKCβ1 (SC8049, mouse, 1:200), PKCδ (CS2058, rabbit, 1:1000) and Actin (Sigma A2228, mouse, 1:10,000) primary antibodies in TBST-5% BSA solution. Membranes were washed in TBS-T, incubated for one-hour in HRP-linked anti-rabbit or anti-mouse secondary antibodies in TBST-5% milk, and washed with TBS-T. Bands were developed using west-pico or west-femto chemiluminescent substrate reagents.

[4] = test system: Rb-proficient (MDAMB231) and Rb-deficient (BT549 and MDAMB436) TNBC cells; test: CV proliferation assay, TNBC cells (statements across lines); conditions: MDAMB231 and BT549 cells (FIG. 4A and TABLE 1)
Description: (§2) Cell proliferation rates were determined using crystal violet assays. One thousand cells per well were plated in 96 well tissue culture plates and treated the following day with a bifunctional compound or control for 7 days in replicates of 8. Cells were fixed with 25% glutaraldehyde for 10 minutes with shaking, washed 5 times with distilled water, stained with a 1% crystal violet solution (solubilized in 25% methanol) for 10 minutes, washed again 5 times and allowed to dry. De-staining was performed using […] sodium citrate in 50% ethanol followed by quantification using a 96 well spectrophotometer set at an absorbance of 550 nm.
as §2, with “using CV” for “using crystal violet”, “assays. Two” for “assays. One”, “thousand (2000) or 4000” for “thousand”, “for 6” for “for 7”, “of 6.” for “of 8.”

[5] = biological target: T1, PKCβ1 (Homo sapiens, UniProt P05771); test: Western blot, PKCβ1 expression in MCF7AC1 cells; conditions: 1 μM, within 72 hours, drugs replenished every 24 hours
T1 construct: western blots showing expression of PKCβ1 in MCF7AC1 cells treated with 1 μM concentration of the ENDX-PROTACs or ENDX; endogenous in cells; host or cells: MCF7AC1 (ER+ breast cancer cells)
Description: For western blotting analysis, cells were treated with vehicle (DMSO) or 1 μM of the indicated ENDX-PROTAC's or parent drug ENDX for 24, 48 and 72 hours with the drugs replenished every 24 hours. 25 μg of protein lysates were run on 10% Bis-Tris XT Criterion precast SDS-PAGE gels and transferred on to PVDF membrane. Following blocking with TB ST-5% milk, the membranes were probed with primary antibodies (1:500 — 1:2000 dilutions) for PKCβ1 (Abcam #136917), ERα (SC #8002), E2F1 (SC #251) and Actin (CS#8457) in TBST-5% BSA and secondary antibodies (1:2000 dilution) in TBST-5% milk. Membranes were developed using chemiluminescent WestPico or WestFemto detection solutions on the Li-Cor Imaging system.

[6] = test system: BT549 cells; test: Crystal violet (CV) proliferation assay, BT549; conditions: BT549 (PKCß1 high, Rb negative), 2000 cells
Description: as §1

T1 sequence (P05771 whole entry): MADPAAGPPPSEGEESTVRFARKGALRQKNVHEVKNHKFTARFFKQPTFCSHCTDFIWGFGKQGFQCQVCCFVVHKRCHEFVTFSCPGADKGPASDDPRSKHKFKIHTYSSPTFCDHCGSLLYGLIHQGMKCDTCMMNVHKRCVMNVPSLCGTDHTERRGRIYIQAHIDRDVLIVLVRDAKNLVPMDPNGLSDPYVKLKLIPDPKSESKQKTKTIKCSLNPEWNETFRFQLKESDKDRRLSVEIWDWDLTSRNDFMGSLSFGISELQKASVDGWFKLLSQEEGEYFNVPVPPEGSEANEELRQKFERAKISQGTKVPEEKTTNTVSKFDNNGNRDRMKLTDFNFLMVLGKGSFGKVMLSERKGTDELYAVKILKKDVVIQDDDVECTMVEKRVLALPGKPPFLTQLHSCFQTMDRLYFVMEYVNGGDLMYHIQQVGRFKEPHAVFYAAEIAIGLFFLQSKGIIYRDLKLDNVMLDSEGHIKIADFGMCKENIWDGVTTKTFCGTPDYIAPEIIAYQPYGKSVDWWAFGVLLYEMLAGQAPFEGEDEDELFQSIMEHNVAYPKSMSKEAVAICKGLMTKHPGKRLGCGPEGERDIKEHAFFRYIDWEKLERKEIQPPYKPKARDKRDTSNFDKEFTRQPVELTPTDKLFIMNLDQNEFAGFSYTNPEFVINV

IC50 [1]: 40 nM
IC50 [2]: 87 nM
PKCβ1 polypeptide degradation [5]: rapidly degraded PKCβ1 polypeptides
IC50 [6]: 43 nM
SMILES: CC/C(=C(\c1ccc(O)cc1)c1ccc(OCCN(C)C(=O)COCCNC(=O)Cc2ccc3c(c2)CN(C2CCC(=O)NC2=O)C3=O)cc1)c1ccccc1 (stereo not shown) [TC-Pr-007]
E2F1 expression [3]: downregulation
E2F7 activation [3]: activated E2F7
PARP cleavage [3]: increased PARP cleavage
expression of anti-apoptotic protein BCL2 [3]: downregulated
activation of ER-stress induced UPR pathway ([3]; 1-48 hours): robustly activated multiple components
induction of apoptosis [4]: induced apoptosis
